Test results taken from the NIST ThermoML archive (doi:10.1016/j.fluid.2004.12.005).
Values joined by “and” are separate entries in the source; they are usually repeats but may differ in a detail not shown here. Equal entries are not always repeated.

Experiments:
[1] = Solid-liquid equilibrium temperature; settings: 100 kPa; Crystal; visual observation
[2] = excess molar enthalpy (molar enthalpy of mixing); xn = mol fraction of the nth substance listed; settings: Liquid, Flow calorimetry
[3] = activity coefficient (dimensionless); of the first substance listed, at infinite dilution; xn = mol fraction of the nth substance listed; settings: Liquid, Chromatography, x1 = 0

c1ccccc1 [benzene]
Settings	Solid-liquid equilibrium temperature [K]
[1]	278.94

COC(C)=O [methyl ethanoate] + CCCCCCCCCC
[2]
Settings	excess molar enthalpy [kcal/mol]
363.15 K, 1582 kPa, x1 = 0.1148	0.164
363.15 K, 1582 kPa, x1 = 0.2149	0.282
363.15 K, 1582 kPa, x1 = 0.303	0.361
363.15 K, 1582 kPa, x1 = 0.3811	0.413
363.15 K, 1582 kPa, x1 = 0.4509	0.442
363.15 K, 1582 kPa, x1 = 0.5135	0.455
363.15 K, 1582 kPa, x1 = 0.5701	0.458
363.15 K, 1582 kPa, x1 = 0.6215	0.45
363.15 K, 1582 kPa, x1 = 0.6684	0.434
363.15 K, 1582 kPa, x1 = 0.7112	0.415
363.15 K, 1582 kPa, x1 = 0.7507	0.387
363.15 K, 1582 kPa, x1 = 0.787	0.356
363.15 K, 1582 kPa, x1 = 0.8206	0.321
363.15 K, 1582 kPa, x1 = 0.8518	0.283
363.15 K, 1582 kPa, x1 = 0.8808	0.242
363.15 K, 1582 kPa, x1 = 0.9079	0.199
363.15 K, 1582 kPa, x1 = 0.9331	0.152
363.15 K, 1582 kPa, x1 = 0.9568	0.103
363.15 K, 1582 kPa, x1 = 0.9791	0.0532
413.15 K, 1376 kPa, x1 = 0.1148	0.153
413.15 K, 1376 kPa, x1 = 0.2149	0.261
413.15 K, 1376 kPa, x1 = 0.303	0.335
413.15 K, 1376 kPa, x1 = 0.3811	0.385
413.15 K, 1376 kPa, x1 = 0.4509	0.416
413.15 K, 1376 kPa, x1 = 0.5136	0.431
413.15 K, 1376 kPa, x1 = 0.5702	0.434
413.15 K, 1376 kPa, x1 = 0.6215	0.427
413.15 K, 1376 kPa, x1 = 0.6684	0.413
413.15 K, 1376 kPa, x1 = 0.7113	0.396
413.15 K, 1376 kPa, x1 = 0.7507	0.37
413.15 K, 1376 kPa, x1 = 0.787	0.341
413.15 K, 1376 kPa, x1 = 0.8206	0.308
413.15 K, 1376 kPa, x1 = 0.8518	0.271
413.15 K, 1376 kPa, x1 = 0.8808	0.232
413.15 K, 1376 kPa, x1 = 0.9079	0.19
413.15 K, 1376 kPa, x1 = 0.9332	0.145
413.15 K, 1376 kPa, x1 = 0.9568	0.0981
413.15 K, 1376 kPa, x1 = 0.9791	0.0501

CCOC(C)=O [ethyl acetate] + CCCCCCCCCC
[3]
Settings	activity coefficient
303.16 K	3.07
313.14 K	2.95
323.17 K	2.84
333.16 K	2.75

COC(C)=O [methyl ethanoate] + CCCCCC
[2]
Settings	excess molar enthalpy [kcal/mol]
363.15 K, 1617 kPa, x1 = 0.0801	0.119
363.15 K, 1617 kPa, x1 = 0.1552	0.211
363.15 K, 1617 kPa, x1 = 0.2259	0.28
363.15 K, 1617 kPa, x1 = 0.2925	0.331
363.15 K, 1617 kPa, x1 = 0.3554	0.365
363.15 K, 1617 kPa, x1 = 0.4148	0.386
363.15 K, 1617 kPa, x1 = 0.471	0.397
363.15 K, 1617 kPa, x1 = 0.5244	0.398
363.15 K, 1617 kPa, x1 = 0.575	0.392
363.15 K, 1617 kPa, x1 = 0.6232	0.382
363.15 K, 1617 kPa, x1 = 0.669	0.361
363.15 K, 1617 kPa, x1 = 0.7127	0.337
363.15 K, 1617 kPa, x1 = 0.7544	0.308
363.15 K, 1617 kPa, x1 = 0.7942	0.274
363.15 K, 1617 kPa, x1 = 0.8322	0.237
363.15 K, 1617 kPa, x1 = 0.8687	0.196
363.15 K, 1617 kPa, x1 = 0.9036	0.151
363.15 K, 1617 kPa, x1 = 0.937	0.103
363.15 K, 1617 kPa, x1 = 0.9692	0.0525
413.15 K, 1376 kPa, x1 = 0.0801	0.119
413.15 K, 1376 kPa, x1 = 0.1552	0.215
413.15 K, 1376 kPa, x1 = 0.2259	0.287
413.15 K, 1376 kPa, x1 = 0.2925	0.34
413.15 K, 1376 kPa, x1 = 0.3553	0.377
413.15 K, 1376 kPa, x1 = 0.4148	0.401
413.15 K, 1376 kPa, x1 = 0.471	0.413
413.15 K, 1376 kPa, x1 = 0.5244	0.415
413.15 K, 1376 kPa, x1 = 0.575	0.41
413.15 K, 1376 kPa, x1 = 0.6232	0.399
413.15 K, 1376 kPa, x1 = 0.669	0.379
413.15 K, 1376 kPa, x1 = 0.7127	0.354
413.15 K, 1376 kPa, x1 = 0.7544	0.321
413.15 K, 1376 kPa, x1 = 0.7942	0.286
413.15 K, 1376 kPa, x1 = 0.8322	0.246
413.15 K, 1376 kPa, x1 = 0.8687	0.203
413.15 K, 1376 kPa, x1 = 0.9036	0.155
413.15 K, 1376 kPa, x1 = 0.937	0.107
413.15 K, 1376 kPa, x1 = 0.9692	0.0543

Cc1ccc(C)cc1 [1,4-dimethylbenzene]
Settings	Solid-liquid equilibrium temperature [K]
[1]	286.45

CC(=O)OC(C)C [1-methylethyl ethanoate] + CCCCCCCCCCCC
[3]
Settings	activity coefficient
303.16 K	2.82
313.17 K	2.66
323.2 K	2.52
333.16 K	2.42

CC(=O)OC(C)C [1-methylethyl ethanoate] + CCCCCCCCCC
[3]
Settings	activity coefficient
303.16 K	2.56
313.14 K	2.48
323.17 K	2.41
333.16 K	2.36

CCOC(C)=O [ethyl acetate] + CCCCCC
[2]
Settings	excess molar enthalpy [kcal/mol]
363.15 K, 1583 kPa, x2 = 0.0377	0.042
363.15 K, 1583 kPa, x2 = 0.0764	0.0851
363.15 K, 1583 kPa, x2 = 0.1162	0.128
363.15 K, 1583 kPa, x2 = 0.157	0.164
363.15 K, 1583 kPa, x2 = 0.1989	0.196
363.15 K, 1583 kPa, x2 = 0.242	0.228
363.15 K, 1583 kPa, x2 = 0.2862	0.254
363.15 K, 1583 kPa, x2 = 0.3318	0.275
363.15 K, 1583 kPa, x2 = 0.3786	0.292
363.15 K, 1583 kPa, x2 = 0.4269	0.305
363.15 K, 1583 kPa, x2 = 0.4765	0.309
363.15 K, 1583 kPa, x2 = 0.5277	0.31
363.15 K, 1583 kPa, x2 = 0.5804	0.304
363.15 K, 1583 kPa, x2 = 0.6347	0.291
363.15 K, 1583 kPa, x2 = 0.6908	0.267
363.15 K, 1583 kPa, x2 = 0.7487	0.237
363.15 K, 1583 kPa, x2 = 0.8084	0.197
363.15 K, 1583 kPa, x2 = 0.8702	0.146
363.15 K, 1583 kPa, x2 = 0.934	0.0799
413.15 K, 1376 kPa, x2 = 0.0377	0.0453
413.15 K, 1376 kPa, x2 = 0.0765	0.0863
413.15 K, 1376 kPa, x2 = 0.1162	0.126
413.15 K, 1376 kPa, x2 = 0.1571	0.162
413.15 K, 1376 kPa, x2 = 0.199	0.195
413.15 K, 1376 kPa, x2 = 0.2421	0.224
413.15 K, 1376 kPa, x2 = 0.2864	0.251
413.15 K, 1376 kPa, x2 = 0.332	0.271
413.15 K, 1376 kPa, x2 = 0.3788	0.288
413.15 K, 1376 kPa, x2 = 0.427	0.301
413.15 K, 1376 kPa, x2 = 0.4767	0.305
413.15 K, 1376 kPa, x2 = 0.5279	0.306
413.15 K, 1376 kPa, x2 = 0.5806	0.3
413.15 K, 1376 kPa, x2 = 0.6349	0.288
413.15 K, 1376 kPa, x2 = 0.691	0.266
413.15 K, 1376 kPa, x2 = 0.7488	0.236
413.15 K, 1376 kPa, x2 = 0.8086	0.196
413.15 K, 1376 kPa, x2 = 0.8703	0.144
413.15 K, 1376 kPa, x2 = 0.934	0.0788

CCOC(C)=O [ethyl acetate] + CCCCCCCCCCCC
[3]
Settings	activity coefficient
303.16 K	3.25
313.17 K	3.05
323.2 K	2.88
333.16 K	2.71

CCCCCCCCCC [decane] + CCOC(C)=O
[2]
Settings	excess molar enthalpy [kcal/mol]
363.15 K, 1397 kPa, x2 = 0.0952	0.112
363.15 K, 1397 kPa, x2 = 0.1817	0.198
363.15 K, 1397 kPa, x2 = 0.2607	0.261
363.15 K, 1397 kPa, x2 = 0.3332	0.304
363.15 K, 1397 kPa, x2 = 0.3998	0.333
363.15 K, 1397 kPa, x2 = 0.4614	0.349
363.15 K, 1397 kPa, x2 = 0.5183	0.356
363.15 K, 1397 kPa, x2 = 0.5712	0.355
363.15 K, 1397 kPa, x2 = 0.6205	0.347
363.15 K, 1397 kPa, x2 = 0.6665	0.335
363.15 K, 1397 kPa, x2 = 0.7095	0.316
363.15 K, 1397 kPa, x2 = 0.7499	0.292
363.15 K, 1397 kPa, x2 = 0.7878	0.266
363.15 K, 1397 kPa, x2 = 0.8234	0.236
363.15 K, 1397 kPa, x2 = 0.8571	0.202
363.15 K, 1397 kPa, x2 = 0.8888	0.167
363.15 K, 1397 kPa, x2 = 0.9189	0.129
363.15 K, 1397 kPa, x2 = 0.9473	0.0868
363.15 K, 1397 kPa, x2 = 0.9743	0.0437
413.15 K, 1342 kPa, x2 = 0.0952	0.116
413.15 K, 1342 kPa, x2 = 0.1817	0.204
413.15 K, 1342 kPa, x2 = 0.2607	0.268
413.15 K, 1342 kPa, x2 = 0.3332	0.314
413.15 K, 1342 kPa, x2 = 0.3998	0.346
413.15 K, 1342 kPa, x2 = 0.4614	0.363
413.15 K, 1342 kPa, x2 = 0.5183	0.371
413.15 K, 1342 kPa, x2 = 0.5713	0.372
413.15 K, 1342 kPa, x2 = 0.6205	0.363
413.15 K, 1342 kPa, x2 = 0.6665	0.351
413.15 K, 1342 kPa, x2 = 0.7095	0.329
413.15 K, 1342 kPa, x2 = 0.7499	0.306
413.15 K, 1342 kPa, x2 = 0.7878	0.277
413.15 K, 1342 kPa, x2 = 0.8234	0.244
413.15 K, 1342 kPa, x2 = 0.8571	0.209
413.15 K, 1342 kPa, x2 = 0.8888	0.171
413.15 K, 1342 kPa, x2 = 0.9189	0.131
413.15 K, 1342 kPa, x2 = 0.9473	0.0884
413.15 K, 1342 kPa, x2 = 0.9743	0.0466

CCCCCCCCCCCCCC(=O)OCC [ethyl tetradecanoate]
Settings	Solid-liquid equilibrium temperature
[1]	286.33 K and 286.36 K
